Assay results reported in US20110098267A1, “TOPICAL FORMULATIONS FOR THE TREATMENT OF PSORIASIS” (Synta Pharmaceuticals Corporation, priority 2008, published 2011).
“Also recorded” adds a separate entry of the source.

Tests used:
[1] = tested on: IL-10; test: TaqMan RT-PCR gene expression in skin biopsies, clinical psoriasis study; format: in vivo, human; conditions: lesional psoriatic skin biopsies of patients, week 2 vs pre-treatment (wk0), oral dosing
Experimental: (§1) A multicenter, randomized, open-label, multiple oral dose outpatient study was done in patients with moderate to severe chronic plaque psoriasis. Patients received Compound 5021 mg or 35 mg orally twice daily (BID), 35 mg or 70 mg orally once per day (QD). Patients remained on study medication for a period of 12 weeks.
(§2) Lesional and nonlesional skin biopsies were collected from adults with chronic plaque-type psoriasis before and after treatment with Compound 50. The biopsies were processed using the QIAGEN RNeasy kit. Using a rotor-stator tissue homogenizer (saw-tooth rotor; PowerGen 700), frozen specimens were homogenized in buffer (RLT; QIAGEN) for 30-60 s and spun in a microcentrifuge for 3 min at room temperature to pellet debris. The supernatant was loaded onto a QIAGEN minicolumn and spun for 15s at high speed. A series of washes and DNase digestion was followed by final elution of RNA from the column. RNA was quantitated by UV spectrophotometry. The primers and probes for the TaqMan RT-PCR assays for IL-12/23 p40, IL-23 p19, and IL-10 were generated using the Primer Express algorithm version 1.0 from published sequences (National Center for Biotechnology Information). All primers and probes were synthesized by Applied Biosystems-PerkinElmer. RT-PCR reactions were performed according to the manufacturer's directions (EZ PCR Core Reagents; TaqMan and Applied Biosystems). The human acidic ribosomal protein gene (hARP), a housekeeping gene, was used to normalize each sample and each gene.
(§3) Gene expression levels at week 2 (wk2) were compared to pre-treatment levels in lesional psoriatic skin (wk0). […] In the same biopsy samples, an increase in mRNA IL-10, an anti-inflammatory cytokine, was observed (FIG. 1C).

[2] = tested on: IL-12/23 p40; test: as above; format: in vivo, human; conditions: lesional psoriatic skin biopsies of patients, week 2 vs pre-treatment (wk0), oral dosing, normalized to hARP
Experimental: as §1, §2, §3

[3] = tested on: IL-23 p19; test: as above; format: in vivo, human; conditions: lesional psoriatic skin biopsies of patients, week 2 vs pre-treatment (wk0), oral dosing, normalized to hARP
Experimental: as §1, §2, §3

[4] = tested on: CD11c+ cells (dendritic cells); test: Immunohistochemistry cell counts in skin biopsies, clinical psoriasis study; format: in vivo, human
Experimental: as §1
(§4) Tissue sections of skin biopsies were stained with hematoxylin (Fisher) and eosin (Shandon, Pittsburgh) and purified mouse anti-human mAbs to K16 (Sigma), CD3 (Becton Dickinson), CD11c (BD Pharmingen). Biotin-labeled horse anti-mouse antibody (Vector Laboratories) was amplified with avidin-biotin complex (Vector Laboratories) and developed with chromogen 3-amino-9-ethylcarbazole (Sigma Aldrich). Epidermal thickness measures were computed by using National Institutes of Health software (NIH IMAGE 6.1), and positive cells were counted manually by using computer-assisted image analysis.

[5] = tested on: CD3+ cells; test: as above; format: in vivo, human; conditions: week 12, patients receiving 70 mg once a day
Experimental: as §1, §4

[6] = API-excipient compatibility, 1 month at 40° C. and 60° C.; format: physicochemical; conditions: for % Deg. w/Main peak: 1 month 40° C.
Experimental: For the pre-formulation work Compound 50 was mixed with varying ratios of excipients commonly encountered in topical formulations.
The Compound 50 Pre-Formulation Studies began with the addition of each individual excipient to 500 mg of the Active Pharmaceutical Ingredient (API). Table I below explains the detail ratio between each excipient and API used for this study.
The samples, once prepared in scintillation vials, were kept at 40° C. and 60° C. for over one month. The samples were analyzed by the method (not validated) developed by the analytical support group.
The results in Tables III-V were analyzed with respect to Compound 50 standard to calculate % recovery of API in the presence of each excipient. […] Similar results in table V for samples 5-60° C., 6-60° C., 7-60° C., 8-60° C., 10-60° C., 17-60° C., and 18-60° C. were obtained which needs to be further analyzed.

[7] = Water solubility (statement); format: physicochemical
[8] = tested on: CD83 and CD11c; conditions: responders of Alefacept therapy; cited from earlier work
[9] = week 12, patients receiving 70 mg once a day

| % Deg. w/Main peak ([6]; with Methylparaben, 1st impurity peak RRT 0.52) [%] | w/Main Peak ([6]; with Methylparaben, 1 month 60° C., impurity peak 0.51) [%] | w/Main Peak ([6]; with PEG-300, 1 month 60° C., impurity peak 0.60) [%] | w/Main Peak ([6]; with PEG-400, 1 month 60° C., impurity peak 0.60) [%] | w/Main Peak ([6]; with Polysorbate 80, 1 month 60° C., impurity peak 0.60) [%] | w/Main Peak ([6]; with Propylene Glycol, 1 month 60° C., impurity peak 0.60) [%] | % Deg. w/Main peak ([6]; with Propylparaben, 1st impurity peak RRT 0.78) [%] | w/Main Peak ([6]; with Propylparaben, 1 month 60° C., impurity peak 0.78) [%] | w/Main Peak ([6]; with Sorbitan Monooleate, 1 month 60° C., impurity peak 0.59) [%] | water solubility [7] | Compound | IL-10 mRNA [1] | IL-12/23 p40 gene expression [2] | IL-23 p19 gene expression [3] | CD11c+ cells in epidermis count ([4]; all nonresponders, week 12) | decrease in CD11c+ cells in epidermis ([4]; all responder patients (histological improvement at week 12)) [%] | CD11c+ cells in dermis (CD11DER) [4, 9] | CD11c+ cells in epidermis (CD11EPI) [4, 9] | CD3+ cells in dermis (CD3DER) [5] | CD3+ cells in epidermis (CD3EPI) [5] | CD83 and CD11c immunostaining [8] |
| --- | --- | --- | --- | --- | --- | --- | --- | --- | --- | --- | --- | --- | --- | --- | --- | --- | --- | --- | --- | --- |
| 0.34 | 13.75 | 0.51 | 1.87 | 1.30 | 0.11 | 8.96 | 6.37 | 8.25 | not water soluble | Cc1cccc(/C=N/Nc2cc(N3CCOCC3)nc(OCCc3ccccn3)n2)c1 [Compound 50, N-(3-Methyl-benzylidene)-N′-[6-morpholin-4-yl-2-(2-pyridin-2-yl-ethoxy)-pyrimidin-4-yl]-hydrazine] | increase | reduced; also recorded: decrease | reduced; also recorded: decrease | no significant reduction | ~100 | significant but less pronounced decreases | marked decrease | significant but less pronounced decreases | significant but less pronounced decreases |  |
|  |  |  |  |  |  |  |  |  |  | Alefacept |  |  |  |  |  |  |  |  |  | decreases |
